Assay results from ChEMBL document CHEMBL6178014, “Discovery and Administration Optimization of Novel Selective CDK9 Inhibitor, 1-7a-B1, for Improved Pharmacokinetics and Antitumor Efficacy In Vivo” (J Med Chem, 2025).
The source made the active and inactive calls. The rule behind the calls is not given here.

How the values were obtained:
[1] = Half life in Sprague-Dawley rat at 30 mg/kg, po as submicron emulsion measured after 24 hrs by LC-MS/MS analysis; format: ADME, organism-based; conditions: in vivo
[2] = test system: HCT-116; assay: Inhibition of wild type p53/MDM2 protein-protein interaction in human HCT-116 cells at 200 nM incubated for 48 hrs by co-immunoprecipitation (Co-IP) analysis; format: cell-based
[3] = Volume of distribution in Sprague-Dawley rat at 30 mg/kg, po measured after 24 hrs by LC-MS/MS analysis; format: ADME, organism-based; conditions: in vivo
[4] = Toxicity in female BALB/c nu-nu mouse xenografted with human HCT-116 cells assessed as body weight loss at 20 mg/kg, po as submicron emulsion administered once daily for 3 weeks; format: organism-based; conditions: in vivo, 504 h
[5] = test system: A549; assay: Cytotoxicity against human A549 cells assessed as cell viability incubated for 48 hrs by CCK8 assay; format: functional, cell-based
[6] = Toxicity in female BALB/c nu-nu mouse xenografted with human HCT-116 cells assessed as histopathological changes in liver at 40 mg/kg, po administered once daily for 3 weeks by H and E staining based analysis; format: organism-based; conditions: in vivo, 504 h
[7] = Toxicity in female BALB/c nu-nu mouse xenografted with human HCT-116 cells assessed as body weight loss at 40 mg/kg, po administered once daily for 3 weeks; format: organism-based; conditions: in vivo, 504 h
[8] = test system: HCT-116; assay: Downregulation of Mcl-1 mRNA level in human HCT-116 cells at 200 to 400 nM incubated for 48 hrs by qRT-PCR analysis; format: functional, cell-based; conditions: dose 200-400 nM
[9] = test system: HCT-116; assay: Antitumor activity against human HCT-116 cells xenografted in female BALB/c nu-nu mouse assessed as increase in PARP cleavage at 40 mg/kg, po incubated for 48 hrs by Western blot analysis; format: functional, organism-based
[10] = test system: PANC-1; assay: Cytotoxicity against human PANC-1 cells assessed as cell viability incubated for 48 hrs by CCK8 assay; format: functional, cell-based
[11] = test system: HCT-116; assay: Antitumor activity against human HCT-116 cells xenografted in female BALB/c nu-nu mouse assessed as reduction in Ki67 positive cells at 20 mg/kg, po as submicron emulsion by staining based analysis; format: functional, organism-based
[12] = target: CYP1A2 (Homo sapiens, UniProt P05177); assay: Inhibition of CYP1A2 in human liver microsome at 10 uM pre-incubated with compound for 10 mins in presence of NADPH-regenerating system by LC-MS/MS analysis relative to control; format: ADME; conditions: liver microsomes
CYP1A2, sequence (P05177 whole entry): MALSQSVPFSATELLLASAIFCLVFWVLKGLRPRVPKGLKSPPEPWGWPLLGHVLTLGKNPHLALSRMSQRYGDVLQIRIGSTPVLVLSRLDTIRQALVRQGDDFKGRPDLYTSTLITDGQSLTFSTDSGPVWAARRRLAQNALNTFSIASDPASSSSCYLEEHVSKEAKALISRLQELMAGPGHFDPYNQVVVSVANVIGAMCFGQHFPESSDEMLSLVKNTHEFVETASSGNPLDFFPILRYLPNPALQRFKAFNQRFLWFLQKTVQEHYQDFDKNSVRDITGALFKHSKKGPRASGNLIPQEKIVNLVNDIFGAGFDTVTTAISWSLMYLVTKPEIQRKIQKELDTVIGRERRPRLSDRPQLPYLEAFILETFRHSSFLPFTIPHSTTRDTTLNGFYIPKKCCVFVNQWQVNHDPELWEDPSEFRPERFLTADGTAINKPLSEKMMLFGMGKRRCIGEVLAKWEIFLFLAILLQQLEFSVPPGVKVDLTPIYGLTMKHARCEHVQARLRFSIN

[13] = Metabolic stability in human liver microsome assessed as half life at 100 uM pre-incubated with compound for 60 mins followed by NADPH addition and measured up to 60 mins by LC-MS/MS analysis; format: ADME; conditions: liver microsomes, time < 120 min
[14] = target: CDK1/Cyclin A (Homo sapiens, UniProt P06493); assay: Inhibition of CDK1/cyclA2 (unknown origin) by ADP-Glo assay; format: protein-complex assay
CDK1/Cyclin A, sequence (P06493 whole entry): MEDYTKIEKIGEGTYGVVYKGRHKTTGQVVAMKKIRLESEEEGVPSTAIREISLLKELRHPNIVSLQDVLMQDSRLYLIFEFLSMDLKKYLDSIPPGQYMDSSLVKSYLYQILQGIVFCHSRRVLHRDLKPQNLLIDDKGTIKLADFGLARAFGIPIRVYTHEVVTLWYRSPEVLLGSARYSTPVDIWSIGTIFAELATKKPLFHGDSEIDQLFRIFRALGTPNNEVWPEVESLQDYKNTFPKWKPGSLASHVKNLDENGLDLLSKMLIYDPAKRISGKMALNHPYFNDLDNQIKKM
CDK1/Cyclin A, sequence (P20248 whole entry, further chain): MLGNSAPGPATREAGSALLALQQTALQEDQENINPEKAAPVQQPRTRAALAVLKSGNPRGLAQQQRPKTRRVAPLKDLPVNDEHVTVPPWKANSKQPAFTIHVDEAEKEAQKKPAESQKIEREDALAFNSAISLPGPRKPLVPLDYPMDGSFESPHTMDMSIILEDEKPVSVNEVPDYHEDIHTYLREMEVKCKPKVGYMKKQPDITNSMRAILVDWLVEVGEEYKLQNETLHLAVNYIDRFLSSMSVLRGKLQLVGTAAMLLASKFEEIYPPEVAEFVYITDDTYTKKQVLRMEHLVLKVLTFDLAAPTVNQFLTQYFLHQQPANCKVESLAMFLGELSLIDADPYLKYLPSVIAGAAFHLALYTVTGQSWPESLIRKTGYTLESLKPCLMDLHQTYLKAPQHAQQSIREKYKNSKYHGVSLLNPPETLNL

[15] = MRT (infinity) in Sprague-Dawley rat at 30 mg/kg, po measured after 24 hrs by LC-MS/MS analysis; format: ADME, organism-based; conditions: in vivo
[16] = AUC (0 to infinity) in Sprague-Dawley rat at 30 mg/kg, po measured after 24 hrs by LC-MS/MS analysis; format: ADME, organism-based; conditions: in vivo
[17] = target: CDK6/cyclin D3 (Homo sapiens, UniProt Q00534); assay: Inhibition of CDK6/cycD3 (unknown origin) by ADP-Glo assay; format: protein-complex assay
CDK6/cyclin D3, sequence (P30281 whole entry): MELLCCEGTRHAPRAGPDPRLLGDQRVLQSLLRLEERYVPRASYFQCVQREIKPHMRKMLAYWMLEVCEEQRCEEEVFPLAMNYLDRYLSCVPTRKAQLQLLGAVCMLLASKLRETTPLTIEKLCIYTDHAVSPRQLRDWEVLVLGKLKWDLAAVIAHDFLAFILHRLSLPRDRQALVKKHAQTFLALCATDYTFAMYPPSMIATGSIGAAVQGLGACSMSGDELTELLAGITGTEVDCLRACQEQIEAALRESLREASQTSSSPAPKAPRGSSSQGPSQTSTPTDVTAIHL
CDK6/cyclin D3, sequence (Q00534 whole entry): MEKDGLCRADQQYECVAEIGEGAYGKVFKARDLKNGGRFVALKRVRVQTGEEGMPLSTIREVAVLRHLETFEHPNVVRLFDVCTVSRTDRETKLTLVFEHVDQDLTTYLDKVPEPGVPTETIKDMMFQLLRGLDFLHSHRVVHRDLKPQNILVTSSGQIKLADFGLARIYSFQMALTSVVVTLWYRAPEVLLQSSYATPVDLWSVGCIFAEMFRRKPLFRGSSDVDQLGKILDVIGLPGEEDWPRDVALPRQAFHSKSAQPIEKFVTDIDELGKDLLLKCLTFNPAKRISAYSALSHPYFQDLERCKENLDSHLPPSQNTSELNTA

[18] = test system: HCT-116; assay: Induction of ROS accumulation in human HCT-116 cells at 100 to 400 nM incubated for 48 hrs by […] staining based flow cytometry analysis; format: functional, cell-based; conditions: dose 100-400 nM
[19] = target: CDK2/Cyclin A2 (Homo sapiens, UniProt P24941); assay: Inhibition of CDK2/cyclA2 (unknown origin) by ADP-Glo assay; format: protein-complex assay
[20] = test system: HCT-116; assay: Induction of cell cycle arrest in human HCT-116 cells assessed as accumulation of cells at S phase incubated for 48 hrs by PI/RNase staining based flow cytometry analysis; format: functional
[21] = test system: HCT-116; assay: Induction of apoptosis in human HCT-116 cells assessed as increase in caspase-3 activity at 100 to 200 nM incubated for 48 hrs by GreenNuc substrate based flow cytometry analysis; format: functional, cell-based; conditions: dose 100-200 nM
[22] = Toxicity in female BALB/c nu-nu mouse xenografted with human HCT-116 cells assessed as histopathological changes in spleen at 20 mg/kg, po as submicron emulsion administered once daily for 3 weeks by H and E staining based analysis; format: organism-based; conditions: in vivo, 504 h
[23] = Toxicity in female BALB/c nu-nu mouse xenografted with human HCT-116 cells assessed as histopathological changes in heart at 40 mg/kg, po administered once daily for 3 weeks by H and E staining based analysis; format: organism-based; conditions: in vivo, 504 h
[24] = Half life in Sprague-Dawley rat at 2 mg/kg, iv measured after 24 hrs by LC-MS/MS analysis; format: ADME, organism-based; conditions: in vivo
[25] = Half life in Sprague-Dawley rat at 30 mg/kg, po measured after 24 hrs by LC-MS/MS analysis; format: ADME, organism-based; conditions: in vivo
[26] = test system: Mus musculus; assay: In vivo inhibition of CDK9/cyclinT1 in female BALB/c nu-nu mouse xenografted with human HCT-116 cells assessed as inhibition of phosphorylation of RNA polymerase II at Ser 2 residue at 40 mg/kg, po incubated for 48 hrs by Western blot analysis; format: functional, organism-based
[27] = test system: HCT-116; assay: Effect on RNA polymerase II expression in human HCT-116 cells at 100 to 400 nM incubated for 48 hrs by Western blot analysis; format: functional, cell-based; conditions: dose 100-400 nM
[28] = target: Cyclin-dependent kinase 9 (Homo sapiens) (UniProt P50750); assay: Inhibition of CDK9 in human HCT-116 cells assessed as reduction in phosphorylation of RNA polymerase II at Ser2 residue at 100 to 400 nM incubated for 48 hrs by Western blot analysis; format: cell-based; conditions: dose 100-400 nM
Cyclin-dependent kinase 9 (Homo sapiens), sequence (P50750 whole entry): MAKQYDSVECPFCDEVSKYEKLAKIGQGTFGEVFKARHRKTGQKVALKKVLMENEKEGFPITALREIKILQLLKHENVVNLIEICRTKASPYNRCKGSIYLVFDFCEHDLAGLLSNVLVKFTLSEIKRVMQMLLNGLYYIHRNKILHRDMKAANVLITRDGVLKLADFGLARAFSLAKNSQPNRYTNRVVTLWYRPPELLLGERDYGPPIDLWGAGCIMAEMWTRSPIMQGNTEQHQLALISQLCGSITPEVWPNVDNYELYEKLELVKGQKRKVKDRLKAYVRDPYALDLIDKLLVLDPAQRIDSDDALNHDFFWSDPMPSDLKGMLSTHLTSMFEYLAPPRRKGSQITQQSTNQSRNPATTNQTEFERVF

[29] = Tmax in Sprague-Dawley rat at 30 mg/kg, po measured after 24 hrs by LC-MS/MS analysis; format: ADME, organism-based; conditions: in vivo
[30] = test system: HCT-116; assay: Antiproliferative activity against human HCT-116 cells assessed as inhibition of cell growth incubated for 48 hrs by CCK8 assay; format: functional
[31] = test system: HCT-116; assay: Antitumor activity against human HCT-116 cells xenografted in female BALB/c nu-nu mouse assessed as downregulation of Mcl-1 mRNA expression at 40 mg/kg, po incubated for 48 hrs by qRT-PCR analysis; format: functional, organism-based
[32] = Oral bioavailability in Sprague-Dawley rat at 30 mg/kg measured after 24 hrs by LC-MS/MS analysis; format: ADME, organism-based; conditions: in vivo
[33] = Oral bioavailability in Sprague-Dawley rat at 30 mg/kg as submicron emulsion measured after 24 hrs by LC-MS/MS analysis; format: ADME, organism-based; conditions: in vivo
[34] = Toxicity in female BALB/c nu-nu mouse xenografted with human HCT-116 cells assessed as histopathological changes in lung at 40 mg/kg, po administered once daily for 3 weeks by H and E staining based analysis; format: organism-based; conditions: in vivo, 504 h
[35] = test system: HCT-116; assay: Upregulation of p21 expression in human HCT-116 cells at 100 to 400 nM incubated for 48 hrs by Western blot analysis; format: functional, cell-based; conditions: dose 100-400 nM
[36] = test system: Mitochondrial membrane; assay: Induction of mitochondrial membrane depolarization in human HCT-116 cells at 100 to 400 nM incubated for 48 hrs by JC-1 staining based flow cytometry analysis; format: cell membranes; conditions: dose 100-400 nM

In the case of `CC(C)Oc1cc(F)ccc1-c1ccnc(NC(=O)Nc2cccc(C(=O)N3CCN(C)CC3)c2)c1`, the half-life [1] is reported as 55.2 min, the inhibition [2] is reported as “Active” and the Vd [3] is reported as 5.54 L/kg. For the same molecule, the Activity [4] was “Non-toxic”, the Activity [5] was “Active” and the Activity [6] was “Non-toxic”. For the same molecule, the Activity [7] was “Non-toxic”, the Activity [8] was “Active” and the Activity [9] was “Active”. For the same molecule, the Activity [10] was “Active”, the Activity [11] was “Active” and the inhibition at 10 µM [12] was 12.5%. The half-life at 100 µM [13] was 3.9 min, the IC50 [14] was 3.87 µM and the MRT inf [15] was 87 min. The AUC [16] was 900 ng·h/mL, the IC50 [17] was 7.94 µM and the Activity [18] was “Active”. The IC50 [19] was 1.18 µM, the Activity [20] was “Active” and the Activity [21] was “Active”. For the same molecule, the Activity [22] was “Non-toxic”, the Activity [23] was “Non-toxic” and the half-life [24] was 17.6 min. The half-life [25] was 47 min, the inhibition [26] was “Active” and the Activity [27] was “inactive”. The Activity [28] was “Active”, the Tmax [29] was 15 min and the GI50 [30] was 0.15 µM. For the same molecule, the Activity [31] was “Active”, the bioavailability [32] was 14.7% and the bioavailability [33] was 26.4%. For the same molecule, the Activity [34] was “Non-toxic”, the Activity [35] was “Active” and the Activity [36] was “Active”.
